Our source for the inhibition values is patent US8367366B2, “Methods and kits for quantitative methyltransferase and demethylase measurements” (The Board of Trustees of the University of Arkansas, priority 2010, dated 2013).

For this assay, the target named is LSD1 (Homo sapiens, UniProt O60341). In words: biochemical. Conditions: read-out: inhibits LSD1 activity.

Procedure: MassSQUIRM Lysine residues were chemically dimethylated using a reductive methylation technique adapted from Rayment, et al (21). […] This reaction was incubated for 2 hours at 4° C. Fresh aliquots of borane dimethylamine and formaldehyde were added and the reaction was again incubated at 4° C. for two hours. A final aliquot of borane dimethylamine was added and the reaction was incubated at 4° C. for ˜16 hours. The reaction was quenched with 80 mM Tris-Cl, pH 7.5. Peptides were incubated with POROS R220 micron beads (Applied Biosystems), collected with a C18 ZipTip™ (Millipore) and spotted for MALDI analysis in 2,5-dihydroxybenzoic acid. Mass spectra of peptides were collected with a MALDI-prOTOF mass spectrometer (PerkinElmerSciex) (61, 62). Spectra were viewed and peak areas extracted using MoverZ™ software (Genomic Solutions). Reaction products were verified by MS^2 with a Thermo LTQ XL mass spectrometer coupled to a NanoLC-2D™ liquid chromatography system (Eksigent).
Demethylase Assay. […] The reaction proceeded for 2 hr at 37° C. Reaction products were collected with POROS R2 20 micron beads for 15 minutes at room temperature, loaded into a C18 ZipTip, eluted in 40 μL 70% acetonitrile/0.1% TFA, lyophilized, and subjected to MassSQUIRM as described above.
LSD1 Inhibition Assay. […]

For `NNCCc1ccccc1` [phenylethylhydrazine], the inhibition at 16700 µM was determined as 96%.
